Laboratory results as given in US6025387A, “Gastroprotective flavone/flavanone compounds with therapeutic effect on inflammatory bowel disease” (Dong a Pharmaceutical Co., Ltd., priority 1996, dated 2000).
Values after ≈ are worked out from the molar mass of the structure shown.

Tests used:
[1] = test system: gastric mucosal damage induced by ethanolic HCl; assay: Gastritis model induced with ethanolic-HCl; format: in vivo, SD male rat; conditions: po, 1 h, rat; for inhibition in vivo at 0.3 mg/kg: 0.3 mg/kg p.o.; for inhibition in vivo at 1 mg/kg: 1 mg/kg p.o.; for inhibition in vivo at 3 mg/kg: 3 mg/kg p.o.
Protocol: Effect on the Gastritis Model Induced with Ethanolic-HCl.
SD male rat(250-350 g) was fasted for 24 hours. The compound was orally administered in suspension of 5% HPMC, and after 1 hour 1.5 mL of 150 mM HCl-80% ethanol was orally administered. After 1 hour the rat was sacrifieced and the stomach was extracted and the ulcer index was measured. The ulcer index was shown by the area of hemorrhage lesion(Mizui, T, et al., Jpn. J. Pharmacol. 1983, 33: 939).

[2] = test system: neutrophils; assay: Luminol-dependent chemiluminescence of neutrophils induced by FMLP; format: cell-based; conditions: 1 μM FMLP, 0.07 mM luminol; for IC50: Neutrophil, read-out: IC50, inhibition of chemiluminescence generated by neutrophil activation
Protocol: Measurement of luminol-dependent chemiluminescencei iof neutrophil induced by FMLP.
20 mL of 12% sodium caseinate-0.9% saline was administered intraperitoneally (Newsby, A. C., Biochem. J., 1980, 186: 907,. After 20 hours, the intraperitoneal exudate was extracted under ether anesthesia. The exudate was centrifuged, and erythrocytes were removed by hypotonic lysis, and then neutrophil was washed. Neutrophil was ascertained by Wright's dyeing method, and viability was measured by Trypan blue exclusion test. Chemiluminescence was measured by Topcount (Packard Co.). The suspension of 1.5×10^6 of granulocytes, 1 μM of FMLP, 0.07 mM of luminol and the compound in HBSS was used (Dahlgren, C., et al., Infect. Immun., 1985 47: 326-328).
**IC50 (μg/mL): Concentration of the compound at inhibiting
chemiluminescence generated by neutrophil activation to 50%

[3] = test system: gastric mucus secretion; assay: Measurement of gastric mucus; format: in vivo, SD male rat; conditions: oral, rat
Protocol: Measurement of Gastric Mucus
The compound was orally administered into SD male rat (200~250 g). After 1 hour the stomach was extracted. The extracted stomach was immediately washed with 10 mL of cold 0.25M sucrose solution. The gastric mucosa was dyed with 0.1% alcian blue solution for 2 hours. After dyeing, the gastric mucosa was washed with 0.25M sucrose solution twice for 15 minutes and for 45 minutes. The dyed gastric mucosa was treated with 10 mL of 30% dioctyl sodium sulfosuccinate solution for 2 hours to extract dyed mucus completely and optical density of aqueous phase was measured spectrophotometrically at 655 nm. The amount of mucus in the gastric mucosa was shown as the amount of alcian blue after calibration (Kitagawa, H., et al., Drug Res. 1986, 36: 1240-1244).

[4] = test system: chronic gastritis induced with acetic acid; assay: Model of chronic gastritis induced with acetic acid; format: in vivo, SD male rat; conditions: once a day for 21 days, rat
Protocol: Experiment on the Model of Chronic Gastritis Induced with Acetic Acid
From the next day of the surgical operation, the compound was orally administered once a day for 21 days. After 21 days, the stomach was extracted under ether anesthesis, dipped in 1% formalin solution and the area of gastric lesion was measured. […] An pathological tissue autopsy was carried out for the prepared specimen.

[5] = test system: ulcer; conditions: in vivo; cited from earlier work
[6] = test system: TNBS-induced colitis; assay: TNBS-induced colitis model, oral administration; format: in vivo, male SD rats; conditions: for lesion scores: once a day for 13 days, rat; for adhesion degree / dilation and extention degree: score 0-3, rat
Protocol: Experiment on the Model of Inflammatory Bowl Diseases Induced with TNBS
7 week-aged male SD rats were fasted for a day, and the rats were put under anesthesia and canula (diameter 3 mm) was inserted into the anus to the depth of 8 cm. 25 mg/mL of TNBS (Trinitrobenzene sulfonic acid) dissolved in 50% ethanol solution was injected to each rat and the rats were positioned at feature of tail up for 1 minute. The solution flowing out was removed and the rats were once washed with 1.5 mL of saline solution. After colitis was induced, the compound was administered orally or intracolonically once a day for 13 days. For control, mesalazine (5-amino salicylic acid) was used for oral administration and prednisolone was used for rectal administration. At 14th day of experiment, each group of the rats were put under ether anesthesis, the colon was extracted and the degree of adhesion and extension of the large intestine were measured and their lesion scores were recorded. After 1% formalin solution was injected to the cavity of the extracted colon to inflate, the both ends of it were bonded with each other and it was all-fixed in 1% formalin solution for 2 hours. The all-fixed colon was cut to lengthy direction and washed to remove surrounding fat tissues and connective fissaes. After cecum was removed, the weight of the colon and the rectum was measured, and the area of ulcer lesion, and microscopic lesion were measured to mark scores according to the criterion. And they were fixed in 10% neutral formalin solution, and the tissue examination of lesion site was performed by general method to mark scores according to the criterion.
Clinical symptoms: Daily, we observed clinical symptoms and survival of the animals. And we measured the weight of the animals at the beginning day, third and eighth day of the experiment.
(0: non-adhesion, 1: adhesion exists but easily taken off by gloved hand, 2: more severe adhesion than 1 exists but easily taken off by scissors, 3: very severe adhesion exists, so it is difficult to be taken off by scissors because of possibility of its perforation.)
Degree of thickening and extension of the large intestine: We marked scores of the degree of thickness and extension of the large intestine according to the criterion, following the method of Kim et al., and compared with the average value of each group.
(0: lesion site non-existing, 1: a few degree of lesion, 2: intermediate degree of lesion, 3: severe degree of lesion)
We scored the lesion examined with the naked eye and compared the average value of each group. The standards of lesion scores as criterion of the damage of the colon by Wallace's method is as followings.
(0: normal, non-damaged, 1: congestion without ulcer 2: congestion and thickening of intestinal wall without ulcer, 3: an ulcer lesion without thickening of intestinal wall, 4: more than two ulcerous/inflammatory lesion, 5: more than two ulcerous/inflammatory lesion or the length of ulcerous/inflammatory lesion is more than 1 cm, 6-10: when the length of lesion is over 2 cm, one point increases everytime 1 cm of the length of ulcerous/inflammatory increases, for example, when the ulcer length is 3 cm, the point is 7.)
Microscopic evaluation: We trimmed the colon giving 3 cm interval from the rectum to the cecum, including the site of lesion examined with the naked eye, to make at least 4 specimens per an individual. […] When the lesion can not be examined with the naked eye, we trimmed the other specimen which has the lesion, with 3 cm interval.

Compound | inhibition in vivo at 0.3 mg/kg [1] [%] | inhibition in vivo at 1 mg/kg [1] [%] | inhibition in vivo at 3 mg/kg [1] [%] | anti-ulcerative action [5] | also measured
COc1ccc(-c2cc(=O)c3c(O)c(OC)ccc3o2)cc1OC [5-hydroxy-3',4',6-trimethoxy flavone] | 38 | 42 | 64 |  | 
COc1ccc(C2CC(=O)c3c(OC)cc(O)cc3O2)cc1OC (stereo not drawn) [7-hydroxy-3',4'5-trimethoxy flavanone, 7-hydroxy-3',4',5-trimethoxy flavanone] | 30 | 57 | 76 |  | 
COc1ccc(C2CC(=O)c3c(cc(OCC(=O)O)c(OC)c3O)O2)cc1OC (stereo not drawn) [7-carboxymethyloxy-5-hydroxy-3',4',6-trimethoxy flavanone] | 0 | 18 | 50 |  | IC50 [2]: 1.79 µg/mL (≈ 4.43 µM)
COC(=O)COc1cc(OC)c2c(=O)cc(-c3ccc(OC)c(OC)c3)oc2c1 [7-methoxycarbomethyloxy-3',4',5-trimethoxy flavone] |  |  |  |  | IC50 [2]: 0.95 µg/mL (≈ 2.37 µM)
O=C(NC(Cc1cc(=O)[nH]c2ccccc12)C(=O)O)c1ccc(Cl)cc1 (stereo not drawn) [Rebamipide, 2(4-chlorobenzoylamino)-3-(2-(LH)-quinolinone-4-yl)propanonic acid, reference compound] |  |  | 22 |  | inhibition in vivo at 10 mg/kg ([1]; 10 mg/kg p.o.): 30%; inhibition in vivo at 30 mg/kg ([1]; 30 mg/kg p.o.): 47%; gastric mucus secretion, % Control ([3]; 10 mg/kg): 128 % Control; gastric mucus secretion, % Control ([3]; 100 mg/kg): 136 % Control; IC50, inhibition of chemiluminescence generated by neutrophil activation [2]: 92 µg/mL; IC50 [2]: 92.1 µg/mL (≈ 248 µM); inhibiting% (gastric lesion) ([4]; 10 mg/kg p.o.): 41%; inhibiting% (gastric lesion) ([4]; 100 mg/kg p.o.): 7%
O=c1cc(-c2ccc(O)c(O)c2)oc2c(O[C@@H]3O[C@H](CO)[C@@H](O)[C@H](O)[C@H]3O)c(O)cc(O)c12 [hypolaetin-8-glucoside] |  |  |  | anti-ulcerative action | 
COc1ccc([C@@H]2CC(=O)c3c(O)cc(O[C@@H]4O[C@H](CO[C@@H]5O[C@@H](C)[C@H](O)[C@@H](O)[C@H]5O)[C@@H](O)[C@H](O)[C@H]4O)cc3O2)cc1O [hesperidine] |  |  |  | anti-ulcerative action | 
COc1ccc(-c2cc(=O)c3c(OC)c(OC)c(OCCO)cc3o2)cc1OC [7-hydroxyethyloxy-3',4',5,6-tetramethoxy flavone] | 43 | 50 | 51 |  | IC50 [2]: 0.13 µg/mL (≈ 0.323 µM)
COc1ccc(-c2cc(=O)c3c(OC)cc(OCCO)cc3o2)cc1OC [7-hydroxyethyloxy-3',4',5-trimethoxy flavone] | 0 | 34 | 47 |  | 
CNC(=O)COc1cc(OC)c2c(=O)cc(-c3ccc(OC)c(OC)c3)oc2c1 [7-(N-methylamidomethyloxy)-3',4',5-trimethoxy flavone] | 43 | 47 | 45 |  | 
Nc1ccc(O)c(C(=O)O)c1 [mesalazine, 5-amino salicylic acid, reference compound] |  |  |  |  | lesion scores ([6]; 25 mg/kg p.o.): 2.8; adhesion degree ([6]; 25 mg/kg p.o.): 1.4; dilation and extention degree ([6]; 25 mg/kg p.o.): 0.9; lesion scores ([6]; 50 mg/kg p.o.): 2.2; adhesion degree ([6]; 50 mg/kg p.o.): 1.0; dilation and extention degree ([6]; 50 mg/kg p.o.): 1.1
O=c1c(O)c(-c2ccc(O)cc2)oc2cc(O)cc(O)c12 [kampferol] |  |  |  | anti-ulcerative action | 
O=c1c(O)c(-c2ccc(O)c(O)c2)oc2cc(O)cc(O)c12 [quercetin] |  |  |  | anti-ulcerative action | 
COc1ccc(-c2cc(=O)c3cc(OC)c(OCC(=O)O)cc3o2)cc1OC [7-carboxymethyloxy-3',4',6-trimethoxy flavone] | 30 | 31 | 39 |  | 
COc1ccc(-c2cc(=O)c3c(O)cc(OC)cc3o2)cc1 [apigenin-7,4'-dimethylether] |  |  |  | anti-ulcerative action | 
O=C1C[C@@H](c2ccc(O)cc2)Oc2cc(O)cc(O)c21 [naringenin] |  |  |  | anti-ulcerative action | 
